{"source": "patent US10155987B2", "about": "“Methods of predicting resistance to JAK inhibitor therapy” (Dana-Farber Cancer Institute, Inc., priority 2012, dated 2018)", "key": {"[1]": {"system": "BaF3.EpoR cells expressing JAK2V617F with G935R mutation", "assay": "Cell growth in response to JAK2 inhibitors, G935R mutant", "assay_type": "cell-based, murine"}, "[2]": {"system": "BaF3.EpoR cells expressing JAK2V617F with Y931C, G935R, R938L, 1960V or E985K mutation", "assay": "Cell growth in response to JAK2 inhibitors, all five resistance mutants (stated together)", "assay_type": "cell-based, murine", "conditions": "summary statement", "description": "Cell growth in response to various drug concentrations was measured by trypan blue (Sigma) exclusion or with the CellTiter 96® AQueous One Solution Cell Proliferation Assay reagent (Promega, Madison, Wis.).\nBaF3.EpoR cell lines expressing potential drug resistant mutant JAK2V617F were generated by retroviral infection, as described previously. […] Polyclonal populations of these cells were used to determine changes in growth in response to various JAK2 inhibitors."}, "[3]": {"system": "BaF3.EpoR cells expressing JAK2V617F with Y931C mutation", "assay": "Cell growth in response to JAK2 inhibitors, Y931C mutant", "assay_type": "cell-based, murine"}, "JAK2": {"molecular_target": "JAK2 (Homo sapiens, UniProt O60674)", "sequence (O60674 whole entry, species assumed)": "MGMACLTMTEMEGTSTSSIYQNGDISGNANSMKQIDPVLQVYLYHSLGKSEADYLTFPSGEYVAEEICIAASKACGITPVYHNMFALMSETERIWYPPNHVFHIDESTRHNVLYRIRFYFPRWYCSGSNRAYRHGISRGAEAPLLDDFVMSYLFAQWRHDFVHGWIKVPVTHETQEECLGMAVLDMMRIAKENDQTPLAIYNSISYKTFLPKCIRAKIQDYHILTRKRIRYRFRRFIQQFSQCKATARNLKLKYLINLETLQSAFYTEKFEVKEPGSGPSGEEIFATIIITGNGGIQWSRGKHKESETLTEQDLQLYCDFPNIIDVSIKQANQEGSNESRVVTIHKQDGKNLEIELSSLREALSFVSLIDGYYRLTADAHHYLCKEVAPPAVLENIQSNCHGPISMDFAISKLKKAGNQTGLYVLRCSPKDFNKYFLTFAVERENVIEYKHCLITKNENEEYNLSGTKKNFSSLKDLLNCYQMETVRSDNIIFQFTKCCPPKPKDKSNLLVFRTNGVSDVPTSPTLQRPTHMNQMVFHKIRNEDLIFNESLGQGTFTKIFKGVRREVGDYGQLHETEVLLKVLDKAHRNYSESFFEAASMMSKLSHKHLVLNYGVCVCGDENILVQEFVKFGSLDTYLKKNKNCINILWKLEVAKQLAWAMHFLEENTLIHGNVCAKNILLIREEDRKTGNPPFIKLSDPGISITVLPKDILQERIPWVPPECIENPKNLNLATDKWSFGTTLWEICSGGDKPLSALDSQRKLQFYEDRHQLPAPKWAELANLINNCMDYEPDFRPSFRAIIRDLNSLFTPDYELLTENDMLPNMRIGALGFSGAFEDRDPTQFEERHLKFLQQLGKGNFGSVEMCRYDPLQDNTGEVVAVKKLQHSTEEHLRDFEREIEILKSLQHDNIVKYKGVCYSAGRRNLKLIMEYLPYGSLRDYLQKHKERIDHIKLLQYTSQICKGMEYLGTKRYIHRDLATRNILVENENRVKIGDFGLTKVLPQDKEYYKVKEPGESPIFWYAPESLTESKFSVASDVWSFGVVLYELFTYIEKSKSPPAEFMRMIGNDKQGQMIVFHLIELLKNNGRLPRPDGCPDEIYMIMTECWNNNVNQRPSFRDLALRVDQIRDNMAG", "conditions": "cited from earlier work"}}}
{"smiles": "Cc1cc(Nc2nc(N[C@@H](C)c3ncc(F)cn3)ncc2Cl)n[nH]1", "note": "[AZD1480]", "values": [{"measurement": "increase in EC50 compared to native JAK2V617F", "setting": "[1]", "result": "> 7", "unit": "fold"}, {"measurement": "EC50", "setting": "[1]; Mus musculus", "result": "> 10", "unit": "µM"}, {"measurement": "resistance conferred by the mutations (in words)", "setting": "[2]", "result": "cross-resistance"}, {"measurement": "increase in EC50 compared to native JAK2V617F", "setting": "[3]", "result": "> 7", "unit": "fold"}, {"measurement": "EC50", "setting": "[3]; Mus musculus", "result": "> 10", "unit": "µM"}]}
{"smiles": "N#CCNC(=O)c1ccc(-c2ccnc(Nc3ccc(N4CCOCC4)cc3)n2)cc1", "note": "[CYT-387]", "values": [{"measurement": "resistance conferred by the mutations (in words)", "setting": "[2]", "result": "cross-resistance"}]}
{"smiles": "C[C@H](Nc1cc(-c2cnn(C)c2)cc(Nc2cnccn2)n1)c1ccc(F)cc1", "note": "[NS018]", "values": [{"measurement": "IC50", "setting": "JAK2", "result": "< 0.001", "unit": "µM"}, {"measurement": "selectivity for JAK2 over other JAK-family kinases", "setting": "JAK2", "result": "30-50 fold"}]}
{"smiles": "Cc1cnc(Nc2ccc(OCCN3CCCC3)cc2)nc1Nc1cccc(S(=O)(=O)NC(C)(C)C)c1", "note": "[TG101348]", "values": [{"measurement": "resistance conferred by the mutations (in words)", "setting": "[2]", "result": "cross-resistance"}]}
